Laboratory results from patent publication US20150045409A1, “AMIDE COMPOUND AND USE THEREOF FOR PEST CONTROL” (SUMITOMO CHEMICAL COMPANY, LIMITED, priority 2012, published 2015).

Experiments:
[1] = system: adult common house mosquitos; test: Spray knockdown test on adult common house mosquitos (Test Examples 5, 6); assay type: in vivo; conditions: active ingredient 0.02% w/v oil solution, 0.5 ml sprayed, counted after 15 minutes
Experimental: (§1) The formulations of Compounds (2), (7), (48) and (49) of the present invention obtained in Formulation Example 7 were diluted with a mixture solution with a ratio of isopropyl alcohol/deodorized kerosene of 1/9, so as to have a concentration of active ingredient of 0.1% w/v, to prepare a test drug solution.
Ten adult common house mosquitos were released in a polyethylene cup (a bottom diameter of 10.6 cm) which was then capped with 16-mesh nylon gauze. The polyethylene cup was placed on the bottom of a test chamber (bottom: 46 cm×46 cm, height: 70 cm). From a height of 30 cm above the upper surface of the polyethylene cup, 0.5 ml of the test drug solution was sprayed using a spray gun (a spraying pressure of 0.4 kg/cm^2). Immediately after spraying, the cup was taken out from the test container, and after 15 minutes, the number of knockdown insects was counted to obtain a knockdown rate. The knockdown rate was calculated by the following equation.
Knockdown Rate(%)=(Number of Knockdown Insects/Number of Tested Insects)×100
as §1, with “Each of the” for “The”, “(19)” for “(2), (7), (48)”, “(40) to (42)” for “(49)”, “was” for “were”, “0.02%” for “0.1%”, “solution. […]” for “solution.”

[2] = system: third-instar larvae of diamondback moth (Plutella xylostella); test: Cabbage foliar spray test on diamondback moth larvae (Test Example 11); assay type: in vivo; conditions: 500 ppm spray, 20 ml/cup on cabbage, after 5 days
Experimental: On the other hand, a cabbage was planted in a polyethylene cup and grown until the third true leaf or the fourth true leaf was developed. The test spray solution was sprayed in a ratio of 20 ml/cup on the cabbage. After the drug solution sprayed on the cabbage was dried, 10 third-instar larvae of diamondback moth (Plutella xylostella) were put on the cabbage. After 5 days, the number of diamondback moths was counted, and a controlling value was calculated by the following equation. […] Letters in the formula have the following meanings. Cb: the number of insects in an untreated section before treatment Cai: the number of insects in an untreated section on observation Tb: the number of insects in a treated section before treatment Tai: the number of insects in a treated section on observation

## CCCC[C@@H]1C[C@H]1/C=C/C(=O)NCC1CCOC1 (relative stereo) [Compound (19), (E)-N-(tetrahydrofuran-3-ylmethyl)-3-(trans-2′-butylcyclopropyl)-2-propenamide]
[1]
  knockdown rate: ≥ 90%

## CCCCC1C(/C=C/C(=O)NCC2CCOCC2)C1(C)C (stereo not drawn) [Compound (43), (E)-N-(tetrahydropyran-4-ylmethyl)-3-(trans-2′-butyl-3′,3′-dimethylcyclopropyl)-2-propenamide]
[2]
  controlling value: 100%
